Assay results as given in PMC1790958, “Bioassay-Guided Evolution of Glycosylated Macrolide Antibiotics in Escherichia coli” (PLoS Biology, 2007).

Experiments:
EryCII/EryCIII = EryCII/EryCIII (Saccharopolyspora erythraea, UniProt A4F7P3); details: BL21(DE3)/pHL50, 100 mg/l αMEB, 10 μM IPTG, 20 °C, 72 h; TDP-D-desosamine made in the cell
DesIV = molecular target: T1, DesIV (Streptomyces venezuelae, UniProt Q9ZGH3); test: HPLC, UV […] nm; assay type: biochemical; details: 1 mM TDP-D-glucose, 1 mM NAD+, 8 μM DesIV, 100 mM phosphate pH 8.0, 1 mM DTT, 5% glycerol, 25 °C
T1 construct: recombinant from E. coli (pET28/pET21-type vectors)
T1 sequence (Q9ZGH3 1-337): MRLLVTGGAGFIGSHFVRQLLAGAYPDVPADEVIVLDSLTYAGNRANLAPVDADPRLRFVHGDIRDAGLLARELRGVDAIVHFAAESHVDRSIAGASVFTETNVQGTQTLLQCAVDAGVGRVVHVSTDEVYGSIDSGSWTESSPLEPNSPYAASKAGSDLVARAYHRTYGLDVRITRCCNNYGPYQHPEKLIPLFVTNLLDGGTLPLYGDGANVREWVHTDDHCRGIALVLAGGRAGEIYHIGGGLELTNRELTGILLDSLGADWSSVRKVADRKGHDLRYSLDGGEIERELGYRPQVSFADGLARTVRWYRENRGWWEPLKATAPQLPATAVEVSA

EryBV = EryBV (Saccharopolyspora erythraea, UniProt O33939); details: BL21(DE3)/pHL71/pHL50, 100 mg/l 6dEB, 10 μM IPTG, 20 °C, 72 h; TDP-L-mycarose made in the cell

CC[C@H]1OC(=O)[C@H](C)[C@@H](O[C@H]2C[C@@](C)(O)[C@@H](O)[C@H](C)O2)[C@H](C)[C@@H](O)[C@](C)(O)C[C@@H](C)C(=O)[C@H](C)[C@@H](O)[C@H]1C [L, αMEB]
% conversion (EryCII/EryCIII): ~ 25%

Cc1cn([C@H]2C[C@H](O)[C@@H](COP(=O)(O)OP(=O)(O)O[C@H]3O[C@H](C)C(=O)[C@H](O)[C@H]3O)O2)c(=O)[nH]c1=O [B, TDP-4-keto-6-deoxy-D-glucose]
HPLC, UV 264 nm (DesIV): Conversion of TDP-Glucose to TDP-4-Keto-6-Deoxy-Glucose by DesIV

CC[C@H]1OC(=O)[C@H](C)[C@@H](O)[C@H](C)[C@@H](O)[C@@H](C)C[C@@H](C)C(=O)[C@H](C)[C@@H](O)[C@H]1C [6dEB]
whole-cell conversion to 6-deoxyerythromycin D (with EryCII/EryCIII), B. subtili (EryBV): EryBV, which ordinarily transfers the mycarose sugar onto erythronolide B, is also capable of recognizing 6dEB

Cc1cn([C@H]2C[C@H](O)[C@@H](COP(=O)(O)OP(=O)(O)O[C@H]3O[C@H](CO)[C@@H](O)[C@H](O)[C@H]3O)O2)c(=O)[nH]c1=O [A, TDP-D-glucose]
HPLC, UV 264 nm (DesIV): Conversion of TDP-Glucose to TDP-4-Keto-6-Deoxy-Glucose by DesIV
